In patent US4291053A, “Agent to be administered orally to domestic animals without cellulose digestion in the rumen” (Hoechst Aktiengesellschaft, priority 1976, dated 1981):
Converted amounts (≈) assume the structure as drawn.

Tests used:
[1] = system: Treponema hyodysenteriae; assay: Minimum inhibiting concentration against Treponema hyodysenteriae, agar diffusion test with dilution series; assay type: cell-based
Protocol: In order to detect the surprising effect on Treponema hyodysenteriae, this microorganism was cultivated according to the method of Harris on a trypticase-soy-agar using an addition of horse blood of 5% in a CO2 /H2 atmosphere, and the minimum inhibiting concentration of Salinomycin was determined in the agar diffusion test, while using the corresponding dilution series, as compared against commercial preparations showing a particularly good effect in dysentery diseases.

[2] = Piglet test S 83/75: incidence of diarrhea in feeding test (Example 1); assay type: in vivo, piglets
Protocol: A feeding test using Salinomycin was carried out on 78 piglets which were kept in boxes with 4 (or 3) animals each. At the beginning of the test, the animals were about 4 weeks old. Four replicates formed one group, and the following treatments were carried out:
1st group: untreated control group
2nd group: Salinomycin as raw product 25 mg/kg of fodder
3rd group: Salinomycin as raw product 50 mg/kg of fodder
4th group: Salinomycin as mycelium 50 mg/kg of fodder
5th group: comparison preparation A 50 mg/kg of fodder (5-Nitromidazol)
The basic feed had the following composition:
The occurrence of diarrhea in the individual boxes (sub-groups) was registered in the test periods of 14 days each and in the total test run of 56 days.

[3] = Feeding test with Salinomycin as raw product: growth and feed efficiency in early weaned piglets (Example 2); assay type: in vivo; settings: for statistical significance of the improvement (weight gain and feed efficiency): vs control; for Feed efficiency per animal, relative / Weight gain per animal, relative: relative to control
Protocol: A feeding test using Salinomycin as a raw product was carried out on 46 piglets weaned at an early age (4 weeks old) that were kept in sub-groups comprising 3 or 4 animals.
Initial weight: 9.8 kg on an average. The feed ration indicated in Example 1 served as basic feed.
4 Sub-groups comprising 15 animals altogether formed the untreated control group. 4 Sub-groups comprising 16 animals altogether were given 25 mg of Salinomycin as raw product per kg of feed, and 4sub-groups comprising 15 animals altogether were given 50 mg of Salinomycin per kg of feed in the form of the raw product. The test period was 8 weeks, with individual weighing at intervals of 2 weeks.

[4] = Feeding test with Salinomycin as mycelium: growth and feed efficiency in early weaned piglets (Example 3); assay type: in vivo; settings: for Feed efficiency per animal, relative / Weight gain per animal, relative: relative to control
Protocol: A feeding test using Salinomycin as a mycelium was carried out on 47 piglets weaned at an early age (4 weeks old) which were kept in sub-groups comprising 4 and 3 animals, respectively. The initial weight was 9.8 kg on an average. The feed ration indicated in Example 1 served as basic feed.
4 Sub-groups comprising 15 animals altogether formed the untreated control group. 4 Sub-groups comprising 16 animals altogether were given 50 mg of Salinomycin as a mycelium per kg of feed, and 4 sub-groups comprising 16 animals altogether were given 50 mg of a comparison preparation A (5-Nitroimidazol) per kg of feed. The test period was 8 weeks, with individual weighing at intervals of 2 weeks.

[5] = system: specified microorganisms; settings: antibacterial spectrum, J. Antibiotics 1974; cited from earlier work
[6] = raw product 25 ppm, 8 weeks, ++ 99% significance
[7] = raw product 50 ppm, 8 weeks, +++ 99.9% significance
[8] = 50 mg per kg of feed as mycelium, 8 weeks
[9] = 50 ppm (Salinomycin as mycelium), 2 weeks
[10] = 50 ppm (Salinomycin as mycelium), 4 weeks
[11] = 50 ppm (Salinomycin as mycelium), 6 weeks
[12] = 50 ppm (Salinomycin as mycelium), 8 weeks

CC[C@@H](C(=O)[C@@H](C)[C@@H](O)[C@H](C)[C@@H]1O[C@@H]([C@@H](CC)C(=O)O)CC[C@@H]1C)[C@H]1O[C@]2(C=C[C@@H](O)[C@]3(CC[C@@](C)([C@H]4CC[C@](O)(CC)[C@H](C)O4)O3)O2)[C@H](C)C[C@@H]1C [Salinomycin]
MIC ([1]; Brachyspira hyodysenteriae, read-out: Minimum inhibiting concentration (MIC)): 0.05 µg/mL (≈ 0.0666 µM) | effect on Treponema hyodysenteriae ([1]; compared against commercial preparations, Table 1): superior effect | Incidence of diarrhea, per cent of test days ([2]; 50 ppm (Salinomycin as mycelium), 1st and 2nd week): 19.6% | Incidence of diarrhea in test days ([2]; 50 ppm (Salinomycin as mycelium), 1st and 2nd week, of 56 test days): 11 days | Incidence of diarrhea, per cent of test days ([2]; 50 ppm (Salinomycin as mycelium), 1st through 8th week): 10.7% | Incidence of diarrhea in test days ([2]; 50 ppm (Salinomycin as mycelium), 1st through 8th week, of 224 test days): 24 days | Incidence of diarrhea, per cent of test days ([2]; 50 ppm (Salinomycin as mycelium), 3rd and 4th week): 5.4% | Incidence of diarrhea in test days ([2]; 50 ppm (Salinomycin as mycelium), 3rd and 4th week, of 56 test days): 3 days | Incidence of diarrhea, per cent of test days ([2]; 50 ppm (Salinomycin as mycelium), 5th and 6th week): 7.1% | Incidence of diarrhea in test days ([2]; 50 ppm (Salinomycin as mycelium), 5th and 6th week, of 56 test days): 4 days | Incidence of diarrhea, per cent of test days ([2]; 50 ppm (Salinomycin as mycelium), 7th and 8th week): 10.7% | Incidence of diarrhea in test days ([2]; 50 ppm (Salinomycin as mycelium), 7th and 8th week, of 56 test days): 6 days | influence on the incidence of diarrhea ([2]; depending on the dosage, against untreated control and comparison preparation): very good influence on the incidence of diarrhea | Incidence of diarrhea, per cent of test days ([2]; raw product 25 ppm, 1st and 2nd week): 48.2% | Incidence of diarrhea in test days ([2]; raw product 25 ppm, 1st and 2nd week, of 56 test days): 27 days | Incidence of diarrhea, per cent of test days ([2]; raw product 25 ppm, 1st through 8th week): 60.3% | Incidence of diarrhea in test days ([2]; raw product 25 ppm, 1st through 8th week, of 224 test days): 135 days | Incidence of diarrhea, per cent of test days ([2]; raw product 25 ppm, 3rd and 4th week): 46.6% | Incidence of diarrhea in test days ([2]; raw product 25 ppm, 3rd and 4th week, of 56 test days): 26 days | Incidence of diarrhea, per cent of test days ([2]; raw product 25 ppm, 5th and 6th week): 69.6% | Incidence of diarrhea in test days ([2]; raw product 25 ppm, 5th and 6th week, of 56 test days): 39 days | Incidence of diarrhea, per cent of test days ([2]; raw product 25 ppm, 7th and 8th week): 76.8% | Incidence of diarrhea in test days ([2]; raw product 25 ppm, 7th and 8th week, of 56 test days): 43 days | Incidence of diarrhea, per cent of test days ([2]; raw product 50 ppm, 1st and 2nd week): 12.5% | Incidence of diarrhea in test days ([2]; raw product 50 ppm, 1st and 2nd week, of 56 test days): 7 days | Incidence of diarrhea, per cent of test days ([2]; raw product 50 ppm, 1st through 8th week): 19.1% | Incidence of diarrhea in test days ([2]; raw product 50 ppm, 1st through 8th week, of 224 test days): 43 days | Incidence of diarrhea, per cent of test days ([2]; raw product 50 ppm, 3rd and 4th week): 12.5% | Incidence of diarrhea in test days ([2]; raw product 50 ppm, 3rd and 4th week, of 56 test days): 7 days | Incidence of diarrhea, per cent of test days ([2]; raw product 50 ppm, 5th and 6th week): 28.6% | Incidence of diarrhea in test days ([2]; raw product 50 ppm, 5th and 6th week, of 56 test days): 16 days | Incidence of diarrhea, per cent of test days ([2]; raw product 50 ppm, 7th and 8th week): 23.2% | Incidence of diarrhea in test days ([2]; raw product 50 ppm, 7th and 8th week, of 56 test days): 13 days | statistical significance of the improvement (weight gain and feed efficiency) ([3]; raw product 25 mg per kg of feed): 99% | statistical significance of the improvement (weight gain and feed efficiency) ([3]; raw product 50 mg per kg of feed): 99.9% | Daily weight gain per animal ([3]; raw product 25 ppm, 2 weeks): 171 g | Feed efficiency per animal, absolute ([3]; raw product 25 ppm, 2 weeks): 1.900 | Weight gain per animal, absolute ([3]; raw product 25 ppm, 2 weeks): 2.4 kg | Feed efficiency per animal, relative ([3]; raw product 25 ppm, 2 weeks): 95.8% | Weight gain per animal, relative ([3]; raw product 25 ppm, 2 weeks): 104.3% | Daily weight gain per animal ([3]; raw product 25 ppm, 4 weeks): 250 g | Feed efficiency per animal, absolute ([3]; raw product 25 ppm, 4 weeks): 1.800 | Weight gain per animal, absolute ([3]; raw product 25 ppm, 4 weeks): 7.0 kg | Feed efficiency per animal, relative ([3]; raw product 25 ppm, 4 weeks): 95.7% | Weight gain per animal, relative ([3]; raw product 25 ppm, 4 weeks): 104.6% | Daily weight gain per animal ([3]; raw product 25 ppm, 6 weeks): 317 g | Feed efficiency per animal, absolute ([3]; raw product 25 ppm, 6 weeks): 1.802 | Weight gain per animal, absolute ([3]; raw product 25 ppm, 6 weeks): 13.0 kg | Feed efficiency per animal, relative ([3]; raw product 25 ppm, 6 weeks): 96.9% | Weight gain per animal, relative ([3]; raw product 25 ppm, 6 weeks): 103.3% | Daily weight gain per animal ([3]; raw product 25 ppm, 8 weeks): 380 g | Feed efficiency per animal, absolute ([3]; raw product 25 ppm, 8 weeks): 1.898 | Weight gain per animal, absolute ([3]; raw product 25 ppm, 8 weeks): 21.3 kg | Feed efficiency per animal, relative [3, 6]: 96.2% | Weight gain per animal, relative [3, 6]: 103.8% | Daily weight gain per animal ([3]; raw product 50 ppm, 2 weeks): 171 g | Feed efficiency per animal, absolute ([3]; raw product 50 ppm, 2 weeks): 1.900 | Weight gain per animal, absolute ([3]; raw product 50 ppm, 2 weeks): 2.4 kg | Feed efficiency per animal, relative ([3]; raw product 50 ppm, 2 weeks): 95.8% | Weight gain per animal, relative ([3]; raw product 50 ppm, 2 weeks): 104.3% | Daily weight gain per animal ([3]; raw product 50 ppm, 4 weeks): 257 g | Feed efficiency per animal, absolute ([3]; raw product 50 ppm, 4 weeks): 1.750 | Weight gain per animal, absolute ([3]; raw product 50 ppm, 4 weeks): 7.2 kg | Feed efficiency per animal, relative ([3]; raw product 50 ppm, 4 weeks): 93.0% | Weight gain per animal, relative ([3]; raw product 50 ppm, 4 weeks): 107.5% | Daily weight gain per animal ([3]; raw product 50 ppm, 6 weeks): 337 g | Feed efficiency per animal, absolute ([3]; raw product 50 ppm, 6 weeks): 1.698 | Weight gain per animal, absolute ([3]; raw product 50 ppm, 6 weeks): 13.8 kg | Feed efficiency per animal, relative ([3]; raw product 50 ppm, 6 weeks): 91.3% | Weight gain per animal, relative ([3]; raw product 50 ppm, 6 weeks): 109.8% | Daily weight gain per animal ([3]; raw product 50 ppm, 8 weeks): 396 g | Feed efficiency per animal, absolute ([3]; raw product 50 ppm, 8 weeks): 1.821 | Weight gain per animal, absolute ([3]; raw product 50 ppm, 8 weeks): 22.2 kg | Feed efficiency per animal, relative [3, 7]: 92.3% | Weight gain per animal, relative [3, 7]: 108.2% | statistical significance of the improvement of the feed efficiency [4, 8]: 99% | statistical significance of the improvement of the weight development [4, 8]: 99.9% | Daily weight gain per animal [4, 9]: 164 g | Feed efficiency per animal, absolute [4, 9]: 1.983 | Weight gain per animal, absolute [4, 9]: 2.3 kg | Feed efficiency per animal, relative [4, 9]: 100.0% | Weight gain per animal, relative [4, 9]: 100.0% | Daily weight gain per animal [4, 10]: 261 g | Feed efficiency per animal, absolute [4, 10]: 1.726 | Weight gain per animal, absolute [4, 10]: 7.3 kg | Feed efficiency per animal, relative [4, 10]: 91.8% | Weight gain per animal, relative [4, 10]: 109.2% | Daily weight gain per animal [4, 11]: 332 g | Feed efficiency per animal, absolute [4, 11]: 1.723 | Weight gain per animal, absolute [4, 11]: 13.6 kg | Feed efficiency per animal, relative [4, 11]: 92.6% | Weight gain per animal, relative [4, 11]: 108.1% | Daily weight gain per animal [4, 12]: 393 g | Feed efficiency per animal, absolute [4, 12]: 1.837 | Weight gain per animal, absolute [4, 12]: 22.0 kg | Feed efficiency per animal, relative ([4]; 50 ppm (Salinomycin as mycelium, ++ 99% significance), 8 weeks): 93.2% | Weight gain per animal, relative ([4]; 50 ppm (Salinomycin as mycelium, +++ 99.9% significance), 8 weeks): 107.4% | effect against the specified microorganisms [5]: only an insiginificant or moderate effect
